Test results published in patent publication US20260002931A1, “CULTURED CELL SHEET AND METHOD FOR PRODUCING SAME; METHOD FOR EVALUATING COMPOUND OR DRUG; AND METHOD FOR EVALUATING QUALITY OF CULTURED CELL SHEET” (OJI HOLDINGS CORPORATION, priority 2022, published 2026).

Assays:
[1] = system: iCell cardiomyocyte CM2 (human iPS cell-derived cardiomyocytes); experiment: Drug safety test-1: arrhythmia measurement by Ca-imaging (CQ1); assay type: cell-based; conditions: for duration (20% waveform width of Ca transient) / interval between peaks of Ca transient: cumulative dose1-dose3 of Table 2
Protocol: (§1) The drug was dissolved in DMSO and cumulatively administered. First, the measurement as dose0 was performed without adding drugs. […] Subsequently, immediately after the measurement, the drug was added to the same well, respectively so that the concentration was dose2, and the measurement was performed after 15 minutes. The same was done for dose3.
(§2) For the cell responsiveness after the drug administration, an arrhythmia measurement method by Ca-imaging using a confocal imaging device (CQ1, manufactured by Yokogawa Electric Corporation) and a motion test method using a live cell imaging device (SI8000, manufactured by Sony Corporation) were performed to investigate the effect on the beating rate and the line width of the beating peak.
To CM2 on day 6 of maintenance culture, a fluorescent Ca indicator (EarlyTox carditotoxicity kit, manufactured by Molecular Devices, LLC.) was added, and living cells were stained. First, the change in Ca fluorescence intensity associated with the contraction of cardiomyocytes was measured as Dose0 in CQ1 without adding drugs. Immediately after the measurement, each drug at the concentration of Dose1 was added to the same well plate, and the change in Ca fluorescence intensity was measured after 15 minutes. For Dose2 and Dose3, the drug was cumulatively administered in the same manner, and the change in Ca fluorescence intensity was measured. The addition test of each drug was performed at n=6.
The significant difference test was performed between the subject group in which DMSO was added and the drug addition group in CM2 cultured in the planar plate and CM2 cultured the aligned plate.
For the side effects seen from the waveform changes of Ca transient, early after depolarization (EAD) and delayed after depolarization (DAD), small regular waveforms (VT-like), and reaction (waveform) disappearance were recorded. The“−” in the table indicates the state in which no arrhythmia or the like has occurred. The degree of arrhythmia is mild for EAD, moderate for DAD, and severe for vt-like.

[2] = system: iCell cardiomyocyte CM2 (human iPS cell-derived cardiomyocytes); experiment: Drug safety test-3 (anti-cancer drug): motion test method using live cell imaging device, CM2 cultured for 15 days; conditions: 3 μM; for beating rate (BR), change rate vs pre-measurement: day 15, after 24 and 48 hours
Protocol: iCell cardiomyocytes (iCell Cardiomyocyte v2.0, manufactured by FUJIFILM Cellular Dynamics, Inc.) were used as human iPS cell-derived cardiomyocytes (hereinafter referred to as CM2). The culture was performed by the following procedure.
In the same procedure as in the above (10), CM2 was seeded at a concentration of 6×10^4 cells/well in the aligned plate (96 well plate, ND Cell Aligner) and the planar plate (96 well plate). A maintenance culture was performed in a 37° C. CO2 incubator, and the drug was administered on day 15 with setting the day of seeding as day 0.
The drug was dissolved in DMSO and administered. First, as a pre-measurement, a measurement was performed without adding the drug. Immediately after the measurement, the drug dissolved in DMSO was added to each well so that the concentration was 3 PM, and the measurement was performed after 24 hours and 48 hours. The measurement was performed in the same manner as the (10-1) measurement by motion test method using live cell imaging device described above.
For the measurement data, the measurement value at the concentration of 3 μM was corrected with the average value of the pre-measurement without adding the drug (measurement value at 3 μM/measurement value of pre-measurement), and the change rate with setting the measurement value of the pre-measurement as 1 was determined.
In addition, a T test was performed between the planar plate and the aligned plate in the drug addition group. For the comparison group with a P value of 0.01 or less, the graph was marked.
DMSO used as the solvent was added so that the final concentration was 0.01%. The effect of DMSO was confirmed by measuring 0.01% DMSO addition group after 24 hours and 48 hours. The measurement data were processed in the same manner as the drug addition group.

[3] = system: iCell cardiomyocyte CM2 (human iPS cell-derived cardiomyocytes); experiment: Drug safety test-1: motion test method using live cell imaging device (SI8000); assay type: cell-based; conditions: for CRD (corrected with the beating rate): Dose2 0.3 μM and Dose3 1 μM, vs DMSO group; for beating rate (BR) / relaxation velocity (RV): day 5, cumulative dose1-dose3 of Table 2; for CRD (corrected with beating rate): Dose1 1 μM, Dose2 3 μM, Dose3 10 μM
Protocol: as §1, §2
CM2 on day 5 of maintenance culture was used, and video data was first obtained as Dose0 using SI8000 (manufactured by Sony Corporation) without adding drugs. Immediately after the measurement, each drug at the concentration of dose1 was added to the same well plate, and video data was obtained after 15 minutes. For Dose2 and Dose3, the drug was cumulatively administered in the same manner, and video data was obtained. The addition test of each drug was performed at n=6.
The beating rate (BR), the contractile velocity (CV), the relaxation velocity (RV), and the contraction-relaxation duration (CRD) were analyzed from the video data of S18000, and the effects of the drugs on the motion of the cells were compared. The contraction-relaxation duration (CRD) was corrected by the following equation with reference to the equation of Frederica to correct variation due to the beating rate (BR).
For the side effects seen from the change in the parameters of SI8000, early after depolarization (EAD) and delayed after depolarization (DAD), small regular waveforms (VT-like), and reaction (waveform) disappearance were recorded. Changes in waveforms not classified into EAD or DAD were described as arrhythmia. The “-” in the table indicates the state in which no arrhythmia or the like has occurred.
The degree of arrhythmia is mild for EAD, moderate for DAD, and severe for vt-like.

[4] = system: CM2 (human iPS cell-derived cardiomyocytes); experiment: Measurement of oxygen consumption rate with β-oxidation inhibitor; assay type: cell-based; conditions: day 27, 50 μM; for OCR with addition of Etomoxir: 10 to 70 minutes
Protocol: The measurement was performed using an oxygen consumption rate plate assay kit (manufactured by DOJINDO LABORATORIES, E297).
To the well plate in which CM2 was cultured, an oxygen probe diluted with medium was added and allowed to stand for 30 minutes in a plate reader incubated at 37° C. in advance. Next, a sample solution containing a β-oxidation inhibitor Etomoxir that inhibits a fatty acid metabolism enzyme at the final concentration 50 μM was added, and mineral oil was immediately added dropwise to block the supply of oxygen.
After allowing the well plate to stand for 5 minutes in a plate reader incubated at 37° C., the fluorescence intensity was measured over time. The fluorescent plate reader was measured under conditions of an excitation wavelength of 495 nm/fluorescence wavelength of 650 nm, and the data acquisition was performed for at least 168 minutes every 10 minutes.
The measurement was performed with 6 wells without addition of Etomoxir as control and 3 wells with addition of 50 μM Etomoxir.
The oxygen concentration (pmol) was calculated with the calculation sheet attached to the oxygen consumption rate plate assay kit, and the oxygen consumption rate (pmol/min) was calculated from the oxygen concentration reduction amount for 60 minutes of 10 to 70 minutes after the start of the measurement.

[5] = system: iCell cardiomyocytes CM2 (human iPS cell-derived cardiomyocytes); experiment: Drug safety test-2: motion test method using live cell imaging device, CM2 cultured for 15 days; assay type: cell-based; conditions: for beating rate (BR), relative to dose0 / contractile velocity (CV), relative to dose0 / relaxation velocity (RV), relative to dose0: day 15, doses of Table 7, 120 min isoproterenol, 15 min milrinone
Protocol: The drug used was isoproterenol and milrinone. […] First, the measurement as dose0 was performed without adding drugs.
For the cell responsiveness after drug administration, a motion test method using a live cell imaging device (SI8000, manufactured by Sony Corporation) was performed to investigate the effect on the beating rate, the contractile velocity, and the relaxation velocity.
CM2 on day 15 of maintenance culture was used, and video data was first obtained as dose0 using SI8000 (manufactured by Sony Corporation) without adding drugs. Immediately after the measurement, each drug at the concentration of each dose was added to the same well plate, and video data was obtained after 120 minutes for isoproterenol and after 15 minutes for milrinone. The addition test of each drug was performed at n=5.
The beating rate (BR), the contractile velocity (CV), and the relaxation velocity (RV) were analyzed from the video data of SI8000, and the effects of the drugs on the motion of the cells were compared.
The measurement data was corrected with the average value of dose0 of no adding drugs (each measurement value/measurement value of dose0), and the relative value with setting the measurement value of dose0 as 1 was determined.

[6] = aligned and planar plates, day 6

With `COc1cc(N)c(Cl)cc1C(=O)NC1CCN(CCCOc2ccc(F)cc2)CC1OC` (stereo not drawn) [Cisapride] the “duration (20% waveform width of Ca transient)” value [1, 6] was “extended in a dose-dependent manner”, the “interval between peaks of Ca transient” value [1, 6] was “extended in a dose-dependent manner” and the incidence of arrhythmia ([1]; aligned plate, cisapride Dose1 0.01 μM to Dose3 0.1 μM, wells of 6) was 1/6. For the same compound, the “difference between the value at Dose0 and at Dose3 (duration, interval), aligned plate versus planar plate” value ([1]; cisapride, Dose3 0.1 μM) was “smaller” and the incidence of arrhythmia ([1]; planar plate, cisapride 0.01-0.1 μM) was “No arrhythmia occurred”.
For `COc1cccc2c1C(=O)c1c(O)c3c(c(O)c1C2=O)C[C@@](O)(C(=O)CO)C[C@@H]3O[C@H]1C[C@H](N)[C@H](O)[C@H](C)O1` [Doxorubicin, doxorubicin], the “beating rate, aligned plate compared to planar plate” value [2] was “significantly increased”, the “beating rate, result after 48 hours compared with after 24 hours” value [2] was “more increased” and the “RV, aligned plate compared to planar plate” value ([2]; after 48 hours) was “significantly increased”. The “relaxation velocity (RV), change rate vs pre-measurement” value ([2]; aligned plate) was “increased”, the “beating rate (BR), change rate vs pre-measurement” value ([2]; aligned plate) was “increased” and the “relaxation velocity (RV), change rate vs pre-measurement” value ([2]; planar plate) was “increased”. For the same compound, the “beating rate (BR), change rate vs pre-measurement” value ([2]; planar plate) was “increased”.
In the case of `Cc1cccc(CCN2CCC(C(=O)c3ccc(NS(C)(=O)=O)cc3)CC2)n1` [E-4031], the “CRD (corrected with the beating rate)” value ([3]; aligned plate) is reported as “significantly reduced”, the “beating rate (BR)” value ([3]; aligned plate) is reported as “reduced” and the “relaxation velocity (RV)” value ([3]; aligned plate) is reported as “reduced”. For the same compound, the “CRD (corrected with the beating rate)” value ([3]; planar plate) was “significantly reduced”, the “CRD (corrected with the beating rate), planar plate compared with aligned plate” value ([3]; planar plate, E-4031) was “reduced more remarkably” and the “beating rate (BR)” value ([3]; planar plate) was “reduced”. For the same compound, the “relaxation velocity (RV)” value ([3]; planar plate) was “reduced”, the “Duration of Ca transient, planar plate compared with aligned plate” value ([1]; E-4031 0.1 μM, day 6) was “slightly longer” and the “Duration of Ca transient, planar plate compared with aligned plate” value ([1]; E-4031 0.3 μM, day 6) was “significantly longer”. For the same compound, the “Duration of Ca transient, planar plate” value ([1]; E-4031 1 μM, day 6) was “not significantly but remarkably extended”.
With `CCOC(=O)[C@@]1(CCCCCCOc2ccc(Cl)cc2)CO1` [Etomoxir] the “OCR compared to OCR before addition” value ([4]; aligned plate) was 11.0%, the “OCR with addition of Etomoxir” value ([4]; aligned plate) was 7.0 pmol/min and the “OCR compared to OCR before addition” value ([4]; planar plate) was 98.3%. For the same compound, the “OCR with addition of Etomoxir” value ([4]; planar plate) was 77.8 pmol/min.
With `CC(C)NCC(O)c1ccc(O)c(O)c1` (stereo not drawn) [Isoproterenol] the “arrhythmia or the like” value ([3]; aligned and planar plate, any concentration (1, 3, 10 μM)) was “No arrhythmia or the like was observed”, the “CRD (corrected with beating rate)” value ([3]; aligned plate) was “extended” and the “beating rate (BR)” value ([3]; aligned plate) was “tended to increase”. For the same compound, the “relaxation velocity (RV)” value ([3]; aligned plate) was “tended to increase”, the “change of CRD compared with the solvent (DMSO)” value ([3]; planar plate, 1, 3, 10 μM) was “largely different from that of the solvent (DMSO)” and the “CRD (corrected with beating rate)” value ([3]; planar plate) was “extended”. The “beating rate (BR)” value ([3]; planar plate) was “tended to increase”, the “relaxation velocity (RV)” value ([3]; planar plate) was “tended to increase” and the “duration (20% waveform width of Ca transient)” value [1, 6] was “Reduction was observed”. For the same compound, the “interval between peaks of Ca transient” value [1, 6] was “Reduction was observed”, the arrhythmia ([1]; aligned and planar plates, up to high concentration (Dose3, 10 μM)) was “arrhythmia did not occur” and the reduction in duration ([1]; planar plate, isoproterenol 1, 3, 10 μM) was “small”. For the same compound, the “beating rate (BR), relative to dose0” value ([5]; aligned plate) was “increased”, the “contractile velocity (CV), relative to dose0” value ([5]; aligned plate) was “increased” and the “relaxation velocity (RV), relative to dose0” value ([5]; aligned plate) was “increased”. For the same compound, the “relaxation velocity, aligned plate compared to planar plate” value ([5]; isoproterenol dose2 (0.3 μM) and dose3 (3 μM)) was “increased”, the “beating rate (BR), relative to dose0” value ([5]; planar plate) was “increased” and the “contractile velocity (CV), relative to dose0” value ([5]; planar plate) was “tended to reduce”. The “relaxation velocity (RV), relative to dose0” value ([5]; planar plate) was “increased”.
`Cc1[nH]c(=O)c(C#N)cc1-c1ccncc1` [Milrinone] was tested, and the “beating rate (BR), relative to dose0” value ([5]; aligned plate) was “increased”, the “contractile velocity (CV), relative to dose0” value ([5]; aligned plate) was “increased” and the “relaxation velocity (RV), relative to dose0” value ([5]; aligned plate) was “increased”. The “RV, aligned plate compared to planar plate” value ([5]; milrinone) was “significantly increased”, the “contractile velocity (CV), aligned plate compared to planar plate” value ([5]; milrinone dose3 (300 μM)) was “significantly increased” and the “relaxation velocity (RV), aligned plate compared to before the drug addition” value ([5]; milrinone dose3 (300 μM)) was “predominantly increased”. For the same compound, the “beating rate (BR), aligned plate compared to before the drug addition” value ([5]; milrinone, all doses (30, 100, 300 μM)) was “predominantly increased”, the “beating rate (BR), relative to dose0” value ([5]; planar plate) was “did not change” and the “contractile velocity (CV), relative to dose0” value ([5]; planar plate) was “tended to reduce”. For the same compound, the “relaxation velocity (RV), relative to dose0” value ([5]; planar plate) was “tended to reduce”.
With `C=C[C@H]1C[N@@]2CC[C@H]1C[C@@H]2[C@@H](O)c1ccnc2ccc(OC)cc12` [Quinidine] the “incidence of moderate to severe arrhythmia (DAD, VT-like)” value (“incidence of moderate … (DAD, VT-like)” below) ([1]; aligned plate, quinidine Dose1, 3 μM, wells of 6) was 0/6, the “incidence of moderate … (DAD, VT-like)” value ([1]; aligned plate, quinidine Dose2, 10 μM, wells of 6) was 0/6 and the “incidence of moderate … (DAD, VT-like)” value ([1]; aligned plate, quinidine Dose3, 30 μM, wells of 6) was 6/6. The “incidence of moderate to severe arrhythmia” value ([1]; planar plate, quinidine Dose1, 3 μM, wells of 6) was 0/6, the “incidence of moderate to severe arrhythmia” value ([1]; planar plate, quinidine Dose2, 10 μM, wells of 6) was 0/6 and the “incidence of moderate to severe arrhythmia” value ([1]; planar plate, quinidine Dose3, 30 μM, wells of 6) was 4/6. The “duration of Ca transient, planar plate compared to aligned plate” value ([1]; quinidine Dose2, 10 μM) was “longer extension”, the “interval of Ca transient, planar plate compared to aligned plate” value ([1]; quinidine Dose2, 10 μM) was “longer extension” and the “peak height of Ca transient, planar plate compared to aligned plate” value ([1]; quinidine Dose2, 10 μM) was “significantly weaker decrease”. For the same compound, the contraction force ([1]; quinidine Dose3, 30 μM) was “greatly reduced” and the “waveform of Ca transient” value ([1]; quinidine Dose3, 30 μM) was “changed to a higher frequency waveform”.
